Laboratory results from ChEMBL document CHEMBL3045522, “Responses of dry beans (Phaseolus vulgaris L.) to sulfentrazone” (Crop Prot, 2007).

What was measured:
Format in all cases: organism-based
Phaseolus vulgaris [1] = experiment: Phytotoxicity against Phaseolus vulgaris (Yellow eye dry beans) assessed as shoot dry weight at 420 g a.i./ha applied pre-emergence measured at 42 days post-emergence (reference value: 142 +/- 8 g/m); settings: in vivo, other, 1008 h
Phaseolus vulgaris [2] = experiment: Phytotoxicity against Phaseolus vulgaris (Otebo dry beans) assessed as shoot dry weight at 420 g a.i./ha applied pre-emergence measured at 42 days post-emergence (reference value: 156 +/- 10 g/m); settings: in vivo, other, 1008 h
Phaseolus vulgaris [3] = experiment: Phytotoxicity against Phaseolus vulgaris (Yellow eye dry beans) assessed as visual crop injury at 420 to 840 g a.i./ha applied pre-emergence measured at 28 days post-emergence relative to control; settings: in vivo, other, 672 h
Phaseolus vulgaris [4] = experiment: Phytotoxicity against Phaseolus vulgaris (Cranberry dry beans) assessed as plant height at 840 g a.i./ha applied pre-emergence measured at 28 days post-emergence (reference value: 33 +/- 1 cm); settings: in vivo, other, 672 h
Phaseolus vulgaris [5] = experiment: Phytotoxicity against Phaseolus vulgaris (Cranberry dry beans) assessed as reduction in yield at 840 g a.i./ha applied pre-emergence relative to control; set-up: scale not given: the % may be the effect or the level left; settings: in vivo, other
Phaseolus vulgaris [6] = experiment: Phytotoxicity against Phaseolus vulgaris (White dry beans) assessed as reduction in yield at 840 g a.i./ha applied pre-emergence relative to control; set-up: scale not given: the % may be the effect or the level left; settings: in vivo, other
Phaseolus vulgaris [7] = experiment: Phytotoxicity against Phaseolus vulgaris (dry bean) assessed as visual crop injury at 420 g a.i./ha applied pre-emergence measured at 28 days post-emergence relative to control; settings: in vivo, other, 672 h
Phaseolus vulgaris [8] = experiment: Phytotoxicity against Phaseolus vulgaris (Black dry beans) assessed as reduction in yield at 840 g a.i./ha applied pre-emergence relative to control; set-up: scale not given: the % may be the effect or the level left; settings: in vivo, other
Phaseolus vulgaris [9] = experiment: Phytotoxicity against Phaseolus vulgaris (Kidney dry beans) assessed as yield at 420 g a.i./ha applied pre-emergence (reference value: 1.9 +/- 0.1 tons/ha); settings: in vivo, other
Phaseolus vulgaris [10] = experiment: Phytotoxicity against Phaseolus vulgaris (Black dry beans) assessed as shoot dry weight at 420 g a.i./ha applied pre-emergence measured at 42 days post-emergence (reference value: 136 +/- 9 g/m); settings: in vivo, other, 1008 h
Phaseolus vulgaris [11] = experiment: Phytotoxicity against Phaseolus vulgaris (Kidney dry beans) assessed as yield at 840 g a.i./ha applied pre-emergence (reference value: 1.9 +/- 0.1 tons/ha); settings: in vivo, other
Phaseolus vulgaris [12] = experiment: Phytotoxicity against Phaseolus vulgaris (Yellow eye dry beans) assessed as yield at 420 g a.i./ha applied pre-emergence (reference value: 2 +/- 0.1 tons/ha); settings: in vivo, other
Phaseolus vulgaris [13] = experiment: Phytotoxicity against Phaseolus vulgaris (Pinto dry beans) assessed as shoot dry weight at 840 g a.i./ha applied pre-emergence measured at 42 days post-emergence (reference value: 134 +/- 11 g/m); settings: in vivo, other, 1008 h
Phaseolus vulgaris [14] = experiment: Phytotoxicity against Phaseolus vulgaris (White dry beans) assessed as shoot dry weight at 420 g a.i./ha applied pre-emergence measured at 42 days post-emergence (reference value: 135 +/- 11 g/m); settings: in vivo, other, 1008 h
Phaseolus vulgaris [15] = experiment: Phytotoxicity against Phaseolus vulgaris (Pinto dry beans) assessed as yield at 840 g a.i./ha applied pre-emergence (reference value: 3.1 +/- 0.1 tons/ha); settings: in vivo, other
Phaseolus vulgaris [16] = experiment: Phytotoxicity against Phaseolus vulgaris (Black dry bean) assessed as reduction in shoot dry weight applied pre-emergence relative to control; set-up: scale not given: the % may be the effect or the level left; settings: in vivo
Phaseolus vulgaris [17] = experiment: Phytotoxicity against Phaseolus vulgaris (Black dry beans) assessed as visual crop injury at 420 to 840 g a.i./ha applied pre-emergence measured at 28 days post-emergence relative to control; settings: in vivo, other, 672 h
Phaseolus vulgaris [18] = experiment: Phytotoxicity against Phaseolus vulgaris (Black dry beans) assessed as yield at 420 g a.i./ha applied pre-emergence (reference value: 3.4 +/- 0.2 tons/ha); settings: in vivo, other
Phaseolus vulgaris [19] = experiment: Phytotoxicity against Phaseolus vulgaris (Brown dry beans) assessed as yield at 840 g a.i./ha applied pre-emergence (reference value: 2.3 +/- 0.1 tons/ha); settings: in vivo, other
Phaseolus vulgaris [20] = experiment: Phytotoxicity against Phaseolus vulgaris (Kidney dry beans) assessed as shoot dry weight at 420 g a.i./ha applied pre-emergence measured at 42 days post-emergence (reference value: 133 +/- 8 g/m); settings: in vivo, other, 1008 h
Phaseolus vulgaris [21] = experiment: Phytotoxicity against Phaseolus vulgaris (brown dry beans) assessed as visual crop injury at 420 to 840 g a.i./ha applied pre-emergence measured at 28 days post-emergence relative to control; settings: in vivo, other, 672 h
Phaseolus vulgaris [22] = experiment: Phytotoxicity against Phaseolus vulgaris (Yellow eye dry beans) assessed as reduction in shoot dry weight at 840 g a.i./ha applied pre-emergence measured at 42 days post-emergence relative to control; set-up: scale not given: the % may be the effect or the level left; settings: in vivo, other, 1008 h
Phaseolus vulgaris [23] = experiment: Phytotoxicity against Phaseolus vulgaris (dry bean) assessed as visual crop injury at 420 g a.i./ha applied pre-emergence measured at 14 days post-emergence relative to control; settings: in vivo, other, 336 h
Phaseolus vulgaris [24] = experiment: Phytotoxicity against Phaseolus vulgaris (Pinto dry beans) assessed as yield at 420 g a.i./ha applied pre-emergence (reference value: 3.1 +/- 0.1 tons/ha); settings: in vivo, other
Phaseolus vulgaris [25] = experiment: Phytotoxicity against Phaseolus vulgaris (Kidney dry beans) assessed as visual crop injury at 420 to 840 g a.i./ha applied pre-emergence measured at 28 days post-emergence relative to control; settings: in vivo, other, 672 h
Phaseolus vulgaris [26] = experiment: Phytotoxicity against Phaseolus vulgaris (Cranberry dry beans) assessed as reduction in shoot dry weight at 840 g a.i./ha applied pre-emergence measured at 42 days post-emergence relative to control; set-up: scale not given: the % may be the effect or the level left; settings: in vivo, other, 1008 h
Phaseolus vulgaris [27] = experiment: Phytotoxicity against Phaseolus vulgaris (White dry beans) assessed as reduction in shoot dry weight at 840 g a.i./ha applied pre-emergence measured at 42 days post-emergence relative to control; set-up: scale not given: the % may be the effect or the level left; settings: in vivo, other, 1008 h
Phaseolus vulgaris [28] = experiment: Phytotoxicity against Phaseolus vulgaris (White dry beans) assessed as plant height at 840 g a.i./ha applied pre-emergence measured at 28 days post-emergence (reference value: 31 +/- 2 cm); settings: in vivo, other, 672 h
Phaseolus vulgaris [29] = experiment: Phytotoxicity against Phaseolus vulgaris (White dry beans) assessed as yield at 420 g a.i./ha applied pre-emergence (reference value: 2.9 +/- 0.1 tons/ha); settings: in vivo, other
Phaseolus vulgaris [30] = experiment: Phytotoxicity against Phaseolus vulgaris (Pinto dry beans) assessed as plant height at 420 g a.i./ha applied pre-emergence measured at 28 days post-emergence (reference value: 32 +/- 1 cm); settings: in vivo, other, 672 h
Phaseolus vulgaris [31] = experiment: Phytotoxicity against Phaseolus vulgaris (dry bean) assessed as visual crop injury at 840 g a.i./ha applied pre-emergence measured at 14 days post-emergence relative to control; settings: in vivo, other, 336 h
Phaseolus vulgaris [32] = experiment: Phytotoxicity against Phaseolus vulgaris (White dry beans) assessed as visual crop injury at 420 to 840 g a.i./ha applied pre-emergence measured at 28 days post-emergence relative to control; settings: in vivo, other, 672 h
Phaseolus vulgaris [33] = experiment: Phytotoxicity against Phaseolus vulgaris (Brown dry beans) assessed as plant height at 420 g a.i./ha applied pre-emergence measured at 28 days post-emergence (reference value: 33 +/- 1 cm); settings: in vivo, other, 672 h
Phaseolus vulgaris [34] = experiment: Phytotoxicity against Phaseolus vulgaris (Yellow eye dry beans) assessed as plant height at 420 g a.i./ha applied pre-emergence measured at 28 days post-emergence (reference value: 33 +/- 1 cm); settings: in vivo, other, 672 h
Phaseolus vulgaris [35] = experiment: Phytotoxicity against Phaseolus vulgaris (Otebo dry beans) assessed as reduction in shoot dry weight at 840 g a.i./ha applied pre-emergence measured at 42 days post-emergence relative to control; set-up: scale not given: the % may be the effect or the level left; settings: in vivo, other, 1008 h

In the case of `Cc1nn(-c2cc(NS(C)(=O)=O)c(Cl)cc2Cl)c(=O)n1C(F)F` [SULFENTRAZONE], the Activity (Phaseolus vulgaris [1]) is reported as 134 g/m, the Activity (Phaseolus vulgaris [2]) is reported as 157 g/m and the Activity (Phaseolus vulgaris [3]) is reported as 13.1%. For the same compound, the Activity (Phaseolus vulgaris [4]) was 21 cm, the Activity (Phaseolus vulgaris [5]) was 44% and the Activity (Phaseolus vulgaris [6]) was 52%. The Activity (Phaseolus vulgaris [7]) was 7%, the Activity (Phaseolus vulgaris [8]) was 47% and the Crop_yield (Phaseolus vulgaris [9]) was 1.9 tons/ha. The Activity (Phaseolus vulgaris [10]) was 111 g/m, the Crop_yield (Phaseolus vulgaris [11]) was 1.6 tons/ha and the Crop_yield (Phaseolus vulgaris [12]) was 2 tons/ha. The Activity (Phaseolus vulgaris [13]) was 128 g/m, the Activity (Phaseolus vulgaris [14]) was 130 g/m and the Crop_yield (Phaseolus vulgaris [15]) was 2.7 tons/ha. The Activity (Phaseolus vulgaris [16]) was 16%, the Activity (Phaseolus vulgaris [17]) was 16.6% and the Crop_yield (Phaseolus vulgaris [18]) was 2.9 tons/ha. The Crop_yield (Phaseolus vulgaris [19]) was 2.1 tons/ha, the Activity (Phaseolus vulgaris [20]) was 128 g/m and the Activity (Phaseolus vulgaris [21]) was 7%. The Activity (Phaseolus vulgaris [22]) was 40%, the Activity (Phaseolus vulgaris [23]) was 12% and the Crop_yield (Phaseolus vulgaris [24]) was 3.4 tons/ha. The Activity (Phaseolus vulgaris [25]) was 15.9%, the Activity (Phaseolus vulgaris [26]) was 40% and the Activity (Phaseolus vulgaris [27]) was 30%. For the same compound, the Activity (Phaseolus vulgaris [28]) was 20 cm, the Crop_yield (Phaseolus vulgaris [29]) was 2.4 tons/ha and the Activity (Phaseolus vulgaris [30]) was 30 cm. For the same compound, the Activity (Phaseolus vulgaris [31]) was 30%, the Activity (Phaseolus vulgaris [32]) was 17.9% and the Activity (Phaseolus vulgaris [33]) was 31 cm. For the same compound, the Activity (Phaseolus vulgaris [34]) was 31 cm and the Activity (Phaseolus vulgaris [35]) was 36%.
